Measured values as given in US4217274A, “Methoxyethoxymethyl esters of penicillins” (Bristol-Myers Company, priority 1978, dated 1980).
Converted amounts (≈) assume the structure as drawn. Where two headings read alike, the source gives them in different places.

Assays:
[1] = tested on: Str. pyogenes; experiment: MIC, antibiotic dilution technique (agar); assay type: cell-based, S. pyogenes; conditions: Streptococcus pyogenes; Table 1, Str. pyogenes
Description: (§1) Bacteria. The organisms, preponderantly of recent clinical origin, were obtained from numerous sources of broad geographical distribution. Obligate anaerobes were maintained in Egg Meat Medium (Difco); Mycobacterium was stored on Lowenstein Medium (Jensen Modification; Difco). The techniques of storing all other organisms have been described previously [Leitner et al., BL-S640, A Cephalosporin with a Broad Spectrum of Antibacterial Activity: Properties in vitro, Antimicrob. Agents Chemother., 7, 298-305 (1975)].
(§2) Antibiotic spectrum. The growth-inhibitory activity of the compounds was determined by the antibiotic dilution technique. Procedures were as follows:
(§3) Aerobic organisms (excluding Mycobacterium). Except for Haemophilus and Neisseria, the assay was performed in Mueller-Hinton Medium (Difco). For fastidious organisms, i.e., Streptococcus, Listeria, Pasteurella, Bordetella and Vibrio, the medium was supplemented with 4% defibrinated sheep blood. The antibiotic susceptibility of Haemophilus and Neisseria was determined in GC Medium Base (BBL) supplemented with 1% Hemoglobin (BBL) and 1% Isovitalex (BBL).
(§4) Overnight broth cultures of an exponentially growing culture (Neisseria) served as the source of inoculum. A volume of approximately 0.003 ml. of the undiluted or diluted culture was applied to the surface of the antibiotic-containing agar plates with the inoculator of Steers et al., An Inocula Replicating Apparatus for Routine Testing of Bacterial Susceptibility to Antibiotics, Antibiot. Chemother., 9, 307-311, (1959). Cultures of Neisseria, Streptococcus pneumoniae, S. viridans and S. pyogenes were used without dilution; those of all other organisms were diluted 100-fold. The inoculum contained about 10^3 viable cells for Neisseria, 10^5 for S. pneumoniae and S. pyogenes, 10^6 for S. viridans and 10^4 for all other species.

[2] = tested on: E. Coli; experiment: MIC, antibiotic dilution technique (agar); assay type: cell-based; conditions: Escherichia coli, Table 1, E. Coli
Description: as §1, §2, §3, §4

[3] = tested on: Ent. cloacae; experiment: MIC, antibiotic dilution technique (agar); assay type: cell-based; conditions: Enterobacter cloacae, Table 1, Ent. cloacae, read-out: MIC
Description: as §1, §2, §3, §4

[4] = tested on: K. pneumoniae; experiment: MIC, antibiotic dilution technique (agar); assay type: cell-based; conditions: Klebsiella pneumoniae, Table 1, K. pneumoniae, read-out: MIC
Description: as §1, §2, §3, §4

[5] = tested on: Pr. mirabilis; experiment: MIC, antibiotic dilution technique (agar); assay type: cell-based; conditions: Proteus mirabilis; Table 1, Pr. mirabilis
Description: as §1, §2, §3, §4

[6] = tested on: Pr. morganii; experiment: MIC, antibiotic dilution technique (agar); assay type: cell-based; conditions: Morganella morganii
Description: as §1, §2, §3, §4

[7] = tested on: Pr. rettgeri; experiment: MIC, antibiotic dilution technique (agar); assay type: cell-based; conditions: Providencia rettgeri; Table 1, Pr. rettgeri
Description: as §1, §2, §3, §4

[8] = tested on: Pr. vulgaris; experiment: MIC, antibiotic dilution technique (agar); assay type: cell-based; conditions: Proteus vulgaris; Table 1, Pr. vulgaris
Description: as §1, §2, §3, §4

[9] = tested on: Ps. aeruginosa; experiment: MIC, antibiotic dilution technique (agar); assay type: cell-based; conditions: Pseudomonas aeruginosa, Table 1, Ps. aeruginosa
Description: as §1, §2, §3, §4

[10] = tested on: S. aureus Meth-Res.; experiment: MIC, antibiotic dilution technique (agar); assay type: cell-based; conditions: Staphylococcus aureus; Table 1, S. aureus Meth-Res.
Description: as §1, §2, §3, §4

[11] = tested on: S. aureus Pen-Res.; experiment: MIC, antibiotic dilution technique (agar); assay type: cell-based; conditions: Staphylococcus aureus
Description: as §1, §2, §3, §4

[12] = tested on: S. aureus; experiment: MIC, antibiotic dilution technique (agar); assay type: cell-based; conditions: Staphylococcus aureus
Description: as §1, §2, §3, §4

[13] = tested on: Ser. marcescens; experiment: MIC, antibiotic dilution technique (agar); assay type: cell-based; conditions: Serratia marcescens; Table 1, Ser. marcescens
Description: as §1, §2, §3, §4

[14] = tested on: Str. faecalis; experiment: MIC, antibiotic dilution technique (agar); assay type: cell-based; conditions: Enterococcus faecalis; Table 1, Str. faecalis
Description: as §1, §2, §3, §4

[15] = tested on: Str. pneumoniae; experiment: MIC, antibiotic dilution technique (agar); assay type: cell-based; conditions: Streptococcus pneumoniae; Table 1, Str. pneumoniae
Description: as §1, §2, §3, §4

[16] = tested on: E. Coli; experiment: MIC, antibiotic dilution technique (agar), Table 4; assay type: cell-based; conditions: Escherichia coli
Description: as §1, §2, §3, §4

[17] = tested on: E. cloacae; experiment: MIC, antibiotic dilution technique (agar), Table 4; assay type: cell-based; conditions: Enterobacter cloacae; Table 4, 2 strains, geometric mean where applicable
Description: as §1, §2, §3, §4

[18] = tested on: K. pneumoniae; experiment: MIC, antibiotic dilution technique (agar), Table 4; assay type: cell-based; conditions: Klebsiella pneumoniae
Description: as §1, §2, §3, §4

[19] = tested on: P. mirabilis; experiment: MIC, antibiotic dilution technique (agar), Table 4; assay type: cell-based; conditions: Proteus mirabilis
Description: as §1, §2, §3, §4

[20] = tested on: P. rettgeri; experiment: MIC, antibiotic dilution technique (agar), Table 4; assay type: cell-based; conditions: Providencia rettgeri
Description: as §1, §2, §3, §4

[21] = tested on: S. aureus (lacking penase); experiment: MIC, antibiotic dilution technique (agar), Table 4; assay type: cell-based; conditions: Staphylococcus aureus; Table 4, 6 strains, geometric mean where applicable
Description: as §1, §2, §3, §4

[22] = tested on: S. faecalis; experiment: MIC, antibiotic dilution technique (agar), Table 4; assay type: cell-based; conditions: Enterococcus faecalis; Table 4, 6 strains, geometric mean where applicable
Description: as §1, §2, §3, §4

[23] = tested on: S. marcescens; experiment: MIC, antibiotic dilution technique (agar), Table 4; assay type: cell-based; conditions: Serratia marcescens
Description: as §1, §2, §3, §4

[24] = tested on: S. pneumoniae; experiment: MIC, antibiotic dilution technique (agar), Table 4; assay type: cell-based; conditions: Streptococcus pneumoniae; Table 4, 7 strains, geometric mean where applicable
Description: as §1, §2, §3, §4

[25] = tested on: S. pyogenes; experiment: MIC, antibiotic dilution technique (agar), Table 4; assay type: cell-based; conditions: Streptococcus pyogenes; Table 4, 6 strains, geometric mean where applicable
Description: as §1, §2, §3, §4

[26] = tested on: S. viridans; experiment: MIC, antibiotic dilution technique (agar), Table 4; assay type: cell-based; conditions: Streptococcus viridans
Description: as §1, §2, §3, §4

[27] = tested on: Streptococcus sp. (β-hemolytic); experiment: MIC, antibiotic dilution technique (agar), Table 4; assay type: cell-based; conditions: Table 4, 6 strains, geometric mean where applicable
Description: as §1, §2, §3, §4

[28] = tested on: p. vulgaris; experiment: MIC, antibiotic dilution technique (agar), Table 4; assay type: cell-based; conditions: Proteus vulgaris; Table 4, 2 strains, geometric mean where applicable
Description: as §1, §2, §3, §4

[29] = Mouse blood levels after oral administration (disc diffusion bioassay, Bacillus subtilis); conditions: in vivo, 100 mg/kg

CC1(C)S[C@@H]2[C@H](NC(=O)[C@H](N)c3ccccc3)C(=O)N2[C@H]1C(=O)O [Ampicillin, ampicillin]
MIC [1]: 0.008 µg/mL (≈ 0.0229 µM) | MIC ([2]; first line): 1 µg/mL (≈ 2.86 µM) | MIC ([2]; second line): 63 µg/mL (≈ 180 µM) | MIC ([3]; first line): 32 µg/mL (≈ 91.6 µM) | MIC ([3]; second line): 32 µg/mL (≈ 91.6 µM) | MIC ([4]; first line): 63 µg/mL (≈ 180 µM) | MIC ([4]; second line): 32 µg/mL (≈ 91.6 µM) | MIC [5]: 0.06 µg/mL (≈ 0.172 µM) | MIC [6]: 125 µg/mL (≈ 358 µM) | MIC [7]: 8 µg/mL (≈ 22.9 µM) | MIC [8]: 0.13 µg/mL (≈ 0.372 µM) | MIC ([9]; first line, read-out: MIC): 63 µg/mL (≈ 180 µM) | MIC ([9]; second line): > 125 µg/mL | MIC [10]: 16 µg/mL (≈ 45.8 µM) | MIC [11]: 125 µg/mL (≈ 358 µM) | MIC ([12]; Table 1, S. aureus): 0.03 µg/mL (≈ 0.0859 µM) | MIC ([12]; Table 1, S. aureus + 50% serum): 0.06 µg/mL | MIC [13]: 16 µg/mL (≈ 45.8 µM) | MIC [14]: 0.13 µg/mL (≈ 0.372 µM) | MIC [15]: 0.004 µg/mL (≈ 0.0114 µM) | MIC ([16]; 1 strain (first line)): 0.5 µg/mL (≈ 1.43 µM) | MIC ([16]; 1 strain (fourth line)): > 125 µg/mL | MIC ([16]; 1 strain (third line)): 63 µg/mL (≈ 180 µM) | MIC ([16]; 3 strains (second line), geometric mean where applicable): 2.5 µg/mL (≈ 7.15 µM) | MIC [17]: 63 µg/mL (≈ 180 µM) | MIC [18]: > 125 µg/mL | MIC ([18]; Table 4, K. pneumoniae, 1 strain (first line), read-out: MIC): 32 µg/mL (≈ 91.6 µM) | MIC [19]: > 125 µg/mL | MIC ([19]; Table 4, P. mirabilis, 4 strains, geometric mean where applicable, read-out: MIC): 2 µg/mL (≈ 5.72 µM) | MIC ([20]; Table 4, P. retgeri, 2 strains (third line), geometric mean where applicable): 32 µg/mL (≈ 91.6 µM) | MIC ([20]; Table 4, P. rettgeri, 1 strain (first line)): 0.13 µg/mL (≈ 0.372 µM) | MIC ([20]; Table 4, P. rettgeri, 1 strain (second line)): 4 µg/mL (≈ 11.4 µM) | MIC [21]: 0.07 µg/mL (≈ 0.2 µM) | MIC [22]: 1 µg/mL (≈ 2.86 µM) | MIC ([23]; 1 strain (first line), read-out: MIC): 63 µg/mL (≈ 180 µM) | MIC ([23]; 1 strain (second line)): > 125 µg/mL | MIC [24]: 0.02 µg/mL (≈ 0.0572 µM) | MIC [25]: 0.016 µg/mL (≈ 0.0458 µM) | MIC ([26]; Table 4, S. viridans, 1 strain (second line)): 0.063 µg/mL (≈ 0.18 µM) | MIC ([26]; Table 4, S. viridans, 3 strains, geometric mean where applicable): 0.05 µg/mL (≈ 0.143 µM) | MIC ([26]; Table 4, s. viridans, 1 strain (third line)): 0.35 µg/mL (≈ 1 µM) | MIC [27]: 0.063 µg/mL (≈ 0.18 µM) | MIC [28]: 0.35 µg/mL (≈ 1 µM) | concentration at 0.25 h [29]: 3500 ng/mL | concentration at 0.5 h [29]: 6600 ng/mL | concentration at 1 h [29]: 6800 ng/mL | concentration at 1.5 h [29]: 4300 ng/mL | concentration at 2 h [29]: 2500 ng/mL | concentration at 3 h [29]: 1100 ng/mL

CC1(C)S[C@@H]2[C@H](N3C(=O)[C@@H](c4ccccc4)NC3(C)C)C(=O)N2[C@H]1C(=O)O [Hetacillin, hetacillin]
MIC [1]: 0.004 µg/mL (≈ 0.0103 µM) | MIC ([2]; first line): 1 µg/mL (≈ 2.57 µM) | MIC ([2]; second line): 32 µg/mL (≈ 82.2 µM) | MIC ([3]; first line): 32 µg/mL (≈ 82.2 µM) | MIC ([3]; second line): 63 µg/mL (≈ 162 µM) | MIC ([4]; first line): 63 µg/mL (≈ 162 µM) | MIC ([4]; second line): 63 µg/mL (≈ 162 µM) | MIC [5]: 0.03 µg/mL (≈ 0.077 µM) | MIC ([6]; Table 1, Pr. morganni, read-out: MIC): 16 µg/mL (≈ 41.1 µM) | MIC [7]: 8 µg/mL (≈ 20.5 µM) | MIC [8]: 0.06 µg/mL (≈ 0.154 µM) | MIC ([9]; first line, read-out: MIC): 63 µg/mL (≈ 162 µM) | MIC ([9]; second line, read-out: MIC): 125 µg/mL (≈ 321 µM) | MIC [10]: 16 µg/mL (≈ 41.1 µM) | MIC ([11]; Table 1, S. aureus Pen-Res., read-out: MIC): 125 µg/mL (≈ 321 µM) | MIC ([12]; Table 1, S. aureus): 0.008 µg/mL (≈ 0.0205 µM) | MIC ([12]; Table 1, S. aureus + 50% serum): 0.016 µg/mL | MIC [13]: 16 µg/mL (≈ 41.1 µM) | MIC [14]: 0.13 µg/mL (≈ 0.334 µM) | MIC [15]: 0.004 µg/mL (≈ 0.0103 µM)
